# Source: patent EP4631938A1, “NITROGEN-CONTAINING HETEROCYCLE WITH SEROTONIN RECEPTOR-BINDING ACTIVITY AND CARBOCYCLIC DERIVATIVE” (Shionogi & Co., Ltd, priority 2022, dated 2024)
# Where two headings read alike, the source gives them in different places.
# Experiments:
# [1] = biological target: T1, human recombinant 5-HT2A receptor (Homo sapiens, UniProt P28223); experiment: Test Example 1-2: 5-HT2A receptor binding inhibition test ([3H]-Ketanserin; non-specific ligand Ketanserin)
# T1 construct: expressed in transfected cells; host or cells: Jump-In HEK cells (membrane preparation)
# T1 sequence (P28223 whole entry): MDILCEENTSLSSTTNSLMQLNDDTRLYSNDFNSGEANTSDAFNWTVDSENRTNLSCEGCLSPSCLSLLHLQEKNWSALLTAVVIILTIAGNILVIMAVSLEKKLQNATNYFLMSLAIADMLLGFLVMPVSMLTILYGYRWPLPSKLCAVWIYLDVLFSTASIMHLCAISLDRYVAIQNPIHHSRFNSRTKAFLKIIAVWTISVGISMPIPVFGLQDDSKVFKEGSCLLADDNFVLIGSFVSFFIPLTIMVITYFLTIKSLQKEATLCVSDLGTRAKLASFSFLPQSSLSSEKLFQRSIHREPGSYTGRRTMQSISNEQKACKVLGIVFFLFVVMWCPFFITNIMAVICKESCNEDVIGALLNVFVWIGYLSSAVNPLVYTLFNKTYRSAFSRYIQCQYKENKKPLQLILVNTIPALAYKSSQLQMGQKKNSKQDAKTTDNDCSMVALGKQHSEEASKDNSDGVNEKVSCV
# Outline: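 Ki values were derived from dose-response inhibition of [3H]-ketanserin binding; nonspecific binding was set with 500 µmol/L ketanserin, and Kd was set for each membrane lot from Scatchard saturation plots. Incubation lasted 1.5 h at room temperature (25 °C). Bound radioligand was harvested on Tris-HCl (pH 7.4)-presoaked filters and counted.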
# [2] = biological target: T2, human recombinant 5-HT2C receptor (Homo sapiens, UniProt P28335); experiment: Test Example 2-2: 5-HT2C receptor binding inhibition test ([3H]-Mesulergine; non-specific ligand Ketanserin); details: non-specific binding with 500 µmol/L Ketanserin, 37°C, 2 hours
# T2 construct: expressed in transfected cells; host or cells: Jump-In HEK cells (membrane preparation)
# T2 sequence (P28335 33-458): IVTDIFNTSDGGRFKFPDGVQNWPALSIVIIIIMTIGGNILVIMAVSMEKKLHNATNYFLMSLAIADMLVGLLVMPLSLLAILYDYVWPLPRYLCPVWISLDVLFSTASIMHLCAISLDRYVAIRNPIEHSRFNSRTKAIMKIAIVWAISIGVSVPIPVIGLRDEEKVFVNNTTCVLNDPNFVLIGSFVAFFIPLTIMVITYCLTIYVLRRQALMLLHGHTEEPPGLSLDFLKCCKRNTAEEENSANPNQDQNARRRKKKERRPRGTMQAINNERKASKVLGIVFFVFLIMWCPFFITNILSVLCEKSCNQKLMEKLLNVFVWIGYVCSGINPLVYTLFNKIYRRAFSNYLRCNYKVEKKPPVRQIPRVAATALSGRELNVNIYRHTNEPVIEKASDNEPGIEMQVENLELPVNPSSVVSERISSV
# Experimental: The Kd value is calculated when the lot of the cell membrane is changed. 1 mmol/L non-specific binding calculating compound dissolved in DMSO or DMSO is previously dispensed to the microplate by 0.5 µL, and the cell membrane is diluted with an Assay buffer. The radioactive ligand solution is diluted step by step, and counts are checked with a liquid scintillator. The Assay buffer containing diluted cell membranes is dispensed by 50 µL/well into the microplate. The radioactive ligand solution is then dispensed by 50 µL/well into the microplate and the plate is sealed. The microplate is allowed to stand at 37°C for 2 hours. During this time, 50 mmol/L Tris-HCl (pH 7.4) is dispensed by 50 µL/well into the UniFilter plate and allowed to stand at 4°C for 1 hour or longer. Thereafter, filtration is performed with a Cell Harvester (PerkinElmer). The radioactive ligand solution is dispensed by 10 µL/well into empty wells of the UniFilter plate. After drying the UniFilter plate at room temperature, MicroScinti20 is dispensed by 50 µL/well into the UniFilter plate, and the plate is sealed. UniFilter plate is allowed to stand at room temperature overnight. The radioactivity of [^3H]-Mesulergine bound to the 5-HT2C receptor is measured using Microbeta2 (PerkinElmer) at a measurement time of 1 min/well. The Saturation curve is drawn from the measured value, and the Kd value is calculated from the slope of the Scatchard Plot.
# A compound solution dissolved in DMSO is dispensed to a microplate by 0.5 µL, and a cell membrane and a hot ligand are each diluted with an Assay buffer. The Assay buffer containing diluted cell membrane is then dispensed by 50 µL/well into the microplate. The radioactive ligand solution is then dispensed by 50 µL/well into the microplate and the plate is sealed. The microplate is then allowed to stand at 37°C for 2 hours. During this time, 50 mmol/L Tris-HCl (pH 7.4) is dispensed by 50 µL/well into the UniFilter plate and allowed to stand at 4°C for 1 hour or longer. Thereafter, filtration is performed with a Cell Harvester (PerkinElmer). After drying the UniFilter plate at room temperature, MicroScinti20 is dispensed by 50 µL/well into the UniFilter plate, and the plate is sealed. UniFilter plate is allowed to stand at room temperature overnight. The radioactivity of [^3H]-Mesulergine bound to the 5-HT2C receptor is measured using Microbeta2 (PerkinElmer) at a measurement time of 1 min/well. Non-specific binding is calculated from the radioactivity of [^3H]-Mesulergine in the presence of 500 µmol/L Ketanserin of unlabeled ligand, and total binding is calculated from the radioactivity of [^3H]-Mesulergine in the absence of the compound of the present invention (Vehicle). Finally, the Ki value is calculated from the dose-response curve.
# (The binding activity of the compound according to the present invention is calculated from the following binding inhibition rate (%).) Inhibition rate (%) = [1−(c−a)/(b−a)] × 100 [formula] • a; average cpm of non-specific binding • b; average cpm of total binding • c; cpm in the presence of the test compound
# The compounds of the present invention were tested essentially as described above.
# [3] = [3H]-Ketanserin, non-specific binding with 500 µmol/L Ketanserin, room temperature (25°C), 1.5 hours, read-out: h 5-HT2A Ki
"Ki [1, 3]",Ki [2],SMILES,Ki [1]
607 pM,7350 pM,Cc1ccncc1-c1cc(Nc2ncc(C(F)(F)F)cc2F)ccc1OCCO [Compound I-024],
365 pM,1350 pM,Cn1ncc(Br)c1-c1cc(Nc2ncc(Cl)cn2)c(F)cc1OCCO [Compound I-149],
548 pM,3120 pM,OCCOc1ccc(Nc2ncc(C(F)(F)F)cc2F)cc1-c1c(F)cccc1Cl [Compound I-019],
241 pM,305 pM,Cn1ncc(Br)c1-c1cc(Nc2ncc(Cl)cc2F)cnc1OCCO [Compound I-117],
379 pM,1960 pM,Cn1ncc(Br)c1-c1cc(Nc2nc3c(Cl)cccc3s2)ccc1OCCO [Compound I-071],
195 pM,248 pM,Cn1ncc(Cl)c1-c1cc(Nc2ncc(C(F)(F)F)cc2F)ccc1OCCO [Compound I-015],
310 pM,881 pM,Cc1cncc(C)c1-c1cc(Nc2ncc(C(F)(F)F)cc2F)ccc1OCCO [Compound I-030],
428 pM,48400 pM,Cc1nn(C)c(C)c1-c1cc(Nc2ncc(C(F)(F)F)cc2F)ccc1OCCO [Compound I-022],
262 pM,596 pM,Cn1ncc(Br)c1-c1cc(Nc2nc3ccccc3s2)cnc1OCCO [Compound I-118],
290 pM,1150 pM,CCn1ncc(C)c1-c1cc(Nc2ncc(C(F)(F)F)cc2F)ccc1OCCO [Compound I-068],
509 pM,1340 pM,Cc1nc(C)c(-c2cc(Nc3ncc(C(F)(F)F)cc3F)ccc2OCCO)c(C)n1 [Compound I-097],
264 pM,4760 pM,Cn1ncc(Cl)c1-c1cc(Nc2ncc(Cl)cn2)ccc1OCCO [Compound I-138],
259 pM,274 pM,Cn1ncc(Cl)c1-c1cc(Nc2ncc(Cl)cc2F)cnc1OCCO [Compound I-143],
194 pM,8350 pM,Cn1ncc(Br)c1-c1cc(Nc2nc3ccccc3n2C)ccc1OCCO [Compound I-042],
235 pM,3770 pM,Cn1ncc(Br)c1-c1cc(Nc2ncccc2F)ccc1OCCO [Compound I-045],
626 pM,15100 pM,Cn1ncc(Br)c1-c1cc(Nc2ncc(C#N)cc2F)ccc1OCCO [Compound I-044],
270 pM,6820 pM,Cc1ncnc(C)c1-c1cc(Nc2ccc(C(F)(F)F)cn2)ccc1OCCO [Compound I-100],
224 pM,7150 pM,Cn1ncc(C#N)c1-c1cc(Nc2ccc(C(F)(F)F)cn2)ccc1OCCO [Compound I-099],
621 pM,13200 pM,Cc1ncnc(C)c1-c1cc(Nc2ncc(C(F)(F)F)cc2F)cnc1OCCO [Compound I-134],
315 pM,1780 pM,Cn1ncc(Cl)c1-c1cc(Nc2ncc(Cl)cc2F)ncc1OCCO [Compound I-156],
238 pM,2330 pM,Cc1cnn(C)c1-c1cc(Nc2ccc(C(F)(F)F)cn2)c(F)cc1OCCO [Compound I-157],
412 pM,3000 pM,Cn1ncc(Br)c1-c1cc(Nc2ncc(F)cc2F)ncc1OCCO [Compound I-089],
372 pM,761 pM,Cn1cnc(Cl)c1-c1cc(Nc2ncc(C(F)(F)F)cc2F)ccc1OCCO [Compound I-095],
722 pM,4100 pM,Cc1cc(C)c(-c2cc(Nc3ncc(C(F)(F)F)cc3F)ccc2OCCO)c(C)c1 [Compound I-021],

"Ki [1, 3]",Ki [2],SMILES,Ki [1]
389 pM,368 pM,Cn1ncc(C(F)(F)F)c1-c1cc(Nc2ncc(C(F)(F)F)cc2F)ccc1OCCO [Compound I-052],
1240 pM,7130 pM,Cc1nc(C)c(-c2cc(Nc3ncc(C(F)(F)F)cc3F)cnc2OCCO)c(C)n1 [Compound I-135],
258 pM,452 pM,Cn1ncc(Br)c1-c1cc(Nc2ccc(C3CC3)cn2)cnc1OCCO [Compound I-128],
497 pM,3110 pM,Cn1ncc(Br)c1-c1cc(Nc2nc3cc(F)ccc3n2C)ccc1OCCO [Compound I-101],
295 pM,625 pM,COc1cnc(Nc2ccc(OCCO)c(-c3c(Br)cnn3C)c2)c(F)c1 [Compound I-079],
246 pM,1410 pM,Cc1noc(C)c1-c1cc(Nc2ncc(C(F)(F)F)cc2F)ccc1OCCO [Compound I-010],
215 pM,666 pM,Cn1ncc(Br)c1-c1cc(Nc2ncc(C3CC3)s2)ccc1OCCO [Compound I-038],
296 pM,4070 pM,Cc1cnn(C)c1-c1cc(Nc2ncc(Cl)cc2F)cnc1OCCO [Compound I-141],
413 pM,8880 pM,COc1ncccc1-c1cc(Nc2ncc(C(F)(F)F)cc2F)ccc1OCCO [Compound I-014],
322 pM,2530 pM,Cn1ncc(Br)c1-c1cc(Nc2ncc(C3CC3)cn2)cnc1OCCO [Compound I-133],
279 pM,1300 pM,Cn1ncc(C#N)c1-c1cc(Nc2ccc(OC(F)(F)F)cn2)ccc1OCCO [Compound I-121],
256 pM,3260 pM,Cn1ncc(Br)c1-c1cc(Nc2ncc(Cl)s2)cnc1OCCO [Compound I-130],
286 pM,351 pM,Cn1ncc(Br)c1-c1cc(Nc2ccc(Cl)cn2)c(F)cc1OCCO [Compound I-153],
375 pM,17300 pM,Cn1ncc(C#N)c1-c1cc(Nc2ncc(C(F)(F)F)cc2F)cc(F)c1OCCO [Compound I-110],
907 pM,3500 pM,Cc1nc(C)c(-c2cc(Nc3ccc(C(F)(F)F)cn3)c(F)cc2OCCO)c(C)n1 [Compound I-158],
1670 pM,99300 pM,Cc1cc(OCCO)c(-c2c(C#N)cnn2C)cc1Nc1ncc(C(F)(F)F)cc1F [Compound I-107],
903 pM,3860 pM,Cn1ncc(Br)c1-c1cc(Nc2ncc(C3CC3)cn2)ccc1OCCO [Compound I-120],
149 pM,939 pM,Cc1cnn(C)c1-c1cc(Nc2ccc(C(F)(F)F)cn2)ccc1OCCO [Compound I-075],
202 pM,4760 pM,Cn1ncc(F)c1-c1cc(Nc2ncc(C(F)(F)F)cc2F)c(F)cc1OCCO [Compound I-145],
344 pM,1920 pM,Cn1ncc(Br)c1-c1cc(Nc2nc(C(F)(F)F)cs2)ccc1OCCO [Compound I-036],
332 pM,7210 pM,Cc1ncccc1-c1cc(Nc2ncc(C(F)(F)F)cc2F)ccc1OCCO [Compound I-013],
734 pM,8320 pM,Cn1cnc(Br)c1-c1cc(Nc2ncc(F)cc2F)ccc1OCCO [Compound I-032],
373 pM,360 pM,Cn1ncc(Br)c1-c1cc(Nc2nc3cc(Cl)ccc3s2)ccc1OCCO [Compound I-069],

SMILES,"Ki [1, 3]",Ki [2],Ki [1]
Cn1ncc(C#N)c1-c1cc(Nc2ncc(C(F)(F)F)cc2F)ccc1OCCO [I-031],,1600 pM,239 pM
Cc1cccc(F)c1-c1cc(Nc2ncc(C(F)(F)F)cc2F)ccc1OCCO [Compound I-020],,5380 pM,1120 pM
Cn1ncc(C#N)c1-c1cc(Nc2ncc(C(F)(F)F)cc2F)c(F)cc1OCCO [I-108],,6230 pM,478 pM
